Laboratory results: patent publication EP0609289B1, “IMIDAZOLE DERIVATIVES AND PHARMACEUTICAL COMPOSITIONS CONTAINING THE SAME” (THE UPJOHN COMPANY, priority 1991, dated 1993)

Legend:
Angiotensin II receptor = test: In vitro angiotensin II mesenteric artery receptor binding assay (test 1); conditions: rat mesenteric artery membrane fraction, 0.2 nM 125I-Ang II, 22°C, 90 minutes
Procedure: I) In vitro angiotensin II mesenteric artery receptor binding assay
According to the method (1) by Gunther et al., a membrane fraction was prepared from mesenteric artery of male rat, […] protein equivalent of it and 0.2 nM ^125I-Ang II as well as various concentrations of test compounds were incubated at 22°C for 90 minutes in an incubation buffer (50 mM Tris-HCl, 120 mM NaCl, 5 mM MgCl2. 0.25% bovine serum albumin, pH 7.2) (reaction volume; 200 µl). The incubated was cooled, and the reaction was stopped by addition of ice-cooled phosphate buffer (10 mM phosphate, 140 mM NaCI, pH 7.4, hereinafter referred to as PBS), and then the reaction solution was filtered through a glass fiber filter (Whatman CF/B), the filter was washed, dried, and then the radioactivity of captured ^125I-angiotensin II which bound to the receptor was measured by a γ-counter. Non-specific bound amount was obtained from the reaction in the presence of 1 µM of unlabeled angiotensin II. […] Res., 17:278-286, 1980].

[1] = test system: blood pressure increase by angiotensin II; test: Antagonism to blood pressure increase by angiotensin II in a spine destroyed (pithed) rat (test 4); type: in vivo, Wistar rat; conditions: intravenous administration, 3µg/kg angiotensin II, read-out: Inhibition of blood pressure increase by angiotensin II in pithed rat ED50(mg/kg) (test 4)
Source text: 4) Antagonism to blood pressure increasing by angiotensin II in a spine destroyed rat
Wistar rat anaesthetized with pentobarbital was fixed at dorsal position, and a cannula for measuring blood pressure was inserted into sinister arteria carotis communis, and a cannula for administration of the test compound into dexter external jugular vein and a cannula for administration of angiotensin II into sinister external jugular vein, ambilateral nervus vagus was cut, and artificial respiration was carried out. A thin bar made of metal was stabbed into spinal column through sinister orbita to destroy spine. Blood pressure was recorded on polygraph via pressure transducer from an arterial cannula. After blood pressure was stable for more than 30 min., 3µg/kg of angiotensin II was administered intravenously four times every 15 min, and every 5 min. before the administration of angiotensin II from the second administration onward, a solvent, a lower dose of the test compound, and a higher dose of the test compound were administered intravenously in this order to observe the blood pressure increasing response by angiotensin II. ED50 values were calculated from the inhibiting rate when the first blood pressure increase by angiotensin II was regarded as 100 %.

| SMILES | IC50 (Angiotensin II receptor) [nM] | ED50 [1] [mg/kg] |
| --- | --- | --- |
| CCCc1nc2c(=O)n3n(c(=O)c2n1Cc1ccc(-c2ccccc2-c2nn[nH]n2)cc1)CC(C)C(C)C3 (stereo not drawn) [Compound No. 50, 6,7-dimethyl-2-n-propyl-5,6,7,8-tetrahydro-1-[(2'-(1H-tetrazol-5-yl)biphenyl-4-yl)methyl]-1H-1,3,4a,8a-tetraza-cyclopentanaphthalene-4,9-dione] | 5.3 | 0.2 |
| CCCc1nc2c(=O)n3n(c(=O)c2n1Cc1ccc(-c2ccccc2-c2nn[nH]n2)cc1)C(C(=O)OCC)CCC3C (stereo not drawn) [Compound No. 138, ethyl 4,9-dioxo-5-methyl-2-n-propyl-5,6,7,8-tetrahydro-1-[(2'-(1H-tetrazol-5-yl)biphenyl-4-yl)methyl]-1H-1,3,4a,8a-tetraza-cyclopentanaphthalene-8-carboxylate] | 4 | 0.096 |
| CCCCc1nc2c(=O)n3n(c(=O)c2n1Cc1ccc(-c2ccccc2-c2nn[nH]n2)cc1)C1CCC3(C(=O)OCC)CC1 [Compound No. 196, ethyl 2-n-butyl-4,9-dioxo-5,8-ethano-5,6,7,8-tetrahydro-1-[{2'-(1H-tetrazol-5-yl)biphenyl-4-yl}methyl]-1H-1,3,4a,8a-tetraza-cyclopentanaphthalene-5-carboxylate] | 4.6 | 0.23 |
| CCCCc1nc2c(=O)n3n(c(=O)c2n1Cc1ccc(-c2ccccc2-c2nnn[nH]2)cc1)C(C)CCC3C(=O)NC(C)(C)C (stereo not drawn) [Compound No. 208, 2-n-butyl-4,9-dioxo-8-methyl-5,6,7,8-tetrahydro-1-[{2'-(1H-tetrazol-5-yl)biphenyl-4-yl}methyl]-1H-1,3,4a,8a-tetraza-cyclopentanaphthalene-5-carboxy-N-t-butylamide] | 8.2 | 0.12 |
| CCCCc1nc2c(=O)n3n(c(=O)c2n1Cc1ccc(-c2ccccc2-c2nnn[nH]2)cc1)C1(CO)CCC3CC1 [Compound No. 222, 2-n-butyl-5,8-ethano-8-hydroxymethyl-5,6,7,8-tetrahydro-1-[{2'-(1H-tetrazol-5-yl)biphenyl-4-yl}methyl]-1H-1,3,4a,8a-tetraza-cyclopentanaphthalene-4,9-dione] | 3 | 0.56 |
| CCCCc1nc2c(n1Cc1ccc(-c3ccccc3-c3nn[nH]n3)cc1)C(=O)N1C3CCC(C)(CC3)N1C2 [Compound No. 443, 2-n-butyl-5,8-ethano-5-methyl-5,6,7,8-tetrahydro-1-[{2'-(1H-tetrazol-5-yl)biphenyl-4-yl}methyl]-1H,4H-1,3,4a,8a-tetraza-cyclopentanaphthalene-9-one] | 1.3 |  |
| CCCCc1nc2c(n1Cc1ccc(-c3ccccc3-c3nn[nH]n3)cc1)C(=O)N1N(C2)C2CCC1(C)CC2 [Compound No. 447, 2-n-butyl-5,8-ethano-8-methyl-5,6,7,8-tetrahydro-1-[{2'-(1H-tetrazol-5-yl)biphenyl-4-yl}methyl]-1H,4H-1,3,4a,8a-tetraza-cyclopentanaphthalene-9-one] | 2.5 |  |
| CCc1nc2c(n1Cc1ccc(-c3ccccc3-c3nnn[nH]3)cc1)C(=O)N1N(C2)C2(CC)CCC1(CC)CC2 [Compound No. 453, 5,8-diethyl-5,8-ethano-2-ethyl-5,6,7,8-tetrahydro-1-[{2'-(1H-tetrazol-5-yl)biphenyl-4-yl}methyl]-1H,4H-1,3,4a,8a-tetraza-cyclopentanaphthalene-9-one] | > 100 |  |
| CCCc1nc2c(n1Cc1ccc(-c3ccccc3-c3nnn[nH]3)cc1)C(=O)N1C(c3ccccc3)CCCN1C2 (stereo not drawn) [Compound No. 470, 8-phenyl-2-n-propyl-5,6,7,8-tetrahydro-1-[{2'-(1H-tetrazol-5-yl)biphenyl-4-yl}methyl]-1H,4H-1,3,4a,8a-tetraza-cyclopentanaphthalene-9-one] | 20 |  |
| CCCc1nc2c(n1Cc1ccc(-c3ccccc3-c3nnn[nH]3)cc1)CN1C3CCC(CC3)N1C2 [Compound No. 523, 5,8-ethano-4,5,6,7,8,9-hexahydro-2-n-propyl-1-[{2'-(1H-tetrazol-5-yl)biphenyl-4-yl}methyl]-1H-1,3,4a,8a-tetraza-cyclopentanaphthalene] | > 100 |  |
| CCCCc1nc2c(n1Cc1ccc(-c3ccccc3-c3nnn[nH]3)cc1)CN1C(C)CCC(CO)N1C2=O (stereo not drawn) [Compound No. 538, 2-n-butyl-5-hydroxymethyl-8-methyl-5,6,7,8-tetrahydro-1-[{2'-(1H-tetrazol-5-yl)biphenyl-4-yl}methyl]-1H-9H-1,3,4a,8a-tetraza-cyclopentanaphthalene-4-one] | > 100 |  |
| CCCCc1nc2c(n1Cc1ccc(-c3ccccc3-c3nnn[nH]3)cc1)CN1C(CO)CCC(C)N1C2=O (stereo not drawn) [Compound No. 540, 2-n-butyl-8-hydroxymethyl-5-methyl-5,6,7,8-tetrahydro-1-[{2'-(1H-tetrazol-5-yl)biphenyl-4-yl}methyl]-1H,9H-1,3,4a,8a-tetraza-cyclopentanaphthalene-4-one] | 34 |  |
| CCCc1nc2c(=O)n3n(c(=O)c2n1Cc1ccc(-c2ccccc2-c2nn[nH]n2)cc1)C(C(=O)O)CCC3C (stereo not drawn) [compound 56, 4,9-dioxo-5-methyl-2-n-propyl-5,6,7,8-tetrahydro-1-[(2'-(1H-tetrazol-5-yl)biphenyl-4-yl)methyl]-1H-1,3,4a,8a-tetraza-cyclopentanaphthalene-8-carboxylic acid] | > 30 |  |
| CCCCc1nc2c(=O)n3n(c(=O)c2n1Cc1ccc(C(=O)O)cc1)C(C(=O)O)CCC3C (stereo not drawn) [compound 121, 2-n-butyl-1-[(4-carboxyphenyl)methyl]-4,9-dioxo-5-methyl-5,6,7,8-tetrahydro-1H-1,3,4a,8a-tetraza-cyclopentanaphthalene-8-carboxylic acid] | > 100 |  |
| CCCCc1nc2c(=O)n3n(c(=O)c2n1Cc1ccc(C(=O)O)cc1)C(C)CCC3C(=O)O (stereo not drawn) [compound 124, 2-n-butyl-1[(4-carboxyphenyl)methyl]-4,9-dioxo-8-methyl-5,6,7,8-tetrahydro-1H-1,3,4a,8a-tetraza-cyclopentanaphthalene-5-carboxylic acid] | > 100 |  |
| CCCCc1nc2c(=O)n3n(c(=O)c2n1Cc1ccc(-c2ccccc2-c2nn[nH]n2)cc1)C(C(=O)OCC)CCC3C (stereo not drawn) [compound 167, ethyl 2-n-butyl-4,9-dioxo-5-methyl-5,6,7,8-tetrahydro-1-[{2'-(1H-tetrazol-5-yl)biphenyl-4-yl}methyl]-1H-1,3,4a,8a-tetraza-cyclopentanaphthalene-8-carboxylate] | 3.2 |  |
| CCCc1nc2c(=O)n3n(c(=O)c2n1Cc1ccc(-c2ccccc2-c2nn[nH]n2)cc1)C(C)CCC3C (stereo not drawn) [compound 337, 5,8-dimethyl-2-n-propyl-5,6,7,8-tetrahydro-1-[{2'-(1H-tetrazol-5-yl)biphenyl-4-yl}methyl]-1H-1,3,4a,8a-tetraza-cyclopentanaphthalene-4,9-dione] | 4.6 |  |
| CCc1nc2c(=O)n3n(c(=O)c2n1Cc1ccc(-c2ccccc2-c2nn[nH]n2)cc1)C1(CC)CCC3(CC)CC1 [compound 355, 5,8-diethyl-5,8-ethano-2-ethyl-5,6,7,8-tetrahydro-1-[{2'-(1H-tetrazol-5-yl)biphenyl-4-yl}methyl]-1H-1,3,4a,8a-tetraza-cyclopentanaphthalene-4,9-dione] | > 100 |  |
| CCc1nc2c(=O)n3n(c(=O)c2n1Cc1ccc(-c2ccccc2-c2nn[nH]n2)cc1)C1(C)CCC3(C)CC1 [compound 361, 5,8-dimethyl-5,8-ethano-2-ethyl-5,6,7,8-tetrahydro-1-[{2'-(1H-tetrazol-5-yl)biphenyl-4-yl}methyl]-1H-1,3,4a,8a-tetraza-cyclopentanaphthalene-4,9-dione] | 55 |  |
| C/C=C/c1nc2c(n1Cc1ccc(-c3ccccc3-c3nnn[nH]3)cc1)C(=O)N1N(C2)C2(CC)CCC1(CC)CC2 [compound 521, 5,8-diethyl-5,8-ethano-2-(1-E-propenyl)-5,6,7,8-tetrahydro-1-[{2'-(1H-tetrazol-5-yl)biphenyl-4-yl}methyl]-1H,4H-1,3,4a,8a-tetraza-cyclopentanaphthalene-9-one] | 9.1 |  |
| CCc1nc2c(=O)n3n(c(=O)c2n1Cc1ccc(-c2ccccc2-c2nnn[nH]2)cc1)C1CCC3CC1 [compound 543, 5,8-ethano-2-ethyl-5,6,7,8-tetrahydro-1-[{2'-(1H-tetrazol-5-yl)biphenyl-4-yl}methyl)-1H-1,3,4a,8a-tetraza-cyclopentanaphthalene-4,9-dione] | 26 |  |
| CCCCc1nc2c(=O)n3n(c(=O)c2n1Cc1ccc(C(=O)O)cc1)C1CCC3CC1 [compound 544, 2-n-butyl-1-[(4-carboxyphenyl)methyl]-5,8-ethano-5,6,7,8-tetrahydro-1H-1,3,4a,8a-tetraza-cyclopentanaphthalene-4,9-dione] | > 100 |  |
